From patent US8394829B2, “Bi-functional quinoline analogs” (Gilead Sciences, Inc., priority 2010, dated 2013)

What was measured:
Human recombinant PDE4B2 = target: T1, Human recombinant PDE4B2 (Homo sapiens, UniProt Q07343); experiment: Inhibition of PDE4B4 enzyme activity (PDE Glo Assay); format: biochemical; details: human recombinant PDE4B2, 50 nM cAMP; read-out: PDE4 IC50
T1 construct: purchased BPS Bioscience
Description: Biological Examples Inhibition of PDE4B4 Enzyme Activity
The inhibitory activity of test compounds were determined using the PDE Glo Assay (Promega, V1361). The PDE-Glo Reaction Buffer was prepared (1 mL 5× buffer+4 mL water) and 150 nM solution of test compound dissolved in the Reaction Buffer, followed by 1:3 serial dilutions into Reaction Buffer. […] Human recombinant PDE4B2 (BPS Bioscience) was added to test compound in Reaction Buffer at a concentration of 0.12 nM per reaction. The enzyme and test compound were pre-incubated together at rt for 10 min. 50 nM of the enzyme substrate cAMP was then added to initiate the enzyme reaction, with the reaction terminated after one hour. Termination Buffer (1 mL 5× termination buffer+3.9 mL water+100 μL of 100 mM IBMX (ICN Chemicals, in DMSO)), was added to each reaction well to terminate the reaction. Detection Buffer (1 mL 5×PDE-Glo Detection buffer+3.96 mL water+40 μL PKA (supplied in kit)) was added to the cAMP-enzyme-test compound mix and this secondary reaction proceeded for 20 minutes at rt. An equal volume of Kinase Glo Reagent was then added to the reaction mixture and after 10 min luminescence was measured using a luminometer (EnVision, 0.1 sec read for luminescence). Luminescence values were […] related to levels of cAMP in the reaction mixture. Data were plotted as relative light units (RLU) versus test compound concentration and the IC50 determined using GraphPad Prism 5.0, using a nonlinear curve fit in a single-site binding model.
IC50 determinations for the compounds presented above are seen in the first column of Table 1 (PDE4IC50).

[1] = target: T2, human recombinant beta-2 adrenoreceptors (Homo sapiens, UniProt P07550); experiment: Beta-2 adrenoceptor binding assay ([3H](−)CGP-12177 displacement); details: CHO cells expressing human beta-2 adrenoreceptors, [3H](−)CGP-12177 0.3 nM, 120 min
T2 construct: expressed in transfected cells; host or cells: CHO cells
Description: Beta-2 Adrenoceptor Binding Assay
Test compounds were incubated for 120 min with Chinese hamster oocyte (CHO) cells expressing the human recombinant beta-2 adrenoreceptors. Binding of test compounds to the beta-2 adrenoreceptors was determined by measuring the displacement of the radiolabeled ligand [^3H](−)CGP-12177 (0.3 nM) from the receptor measured by a scintillation counting. Concentration response curves were generated for test compounds and the IC50 (molar concentration of the compound which produced 50% inhibition for the maximal response for that compound) was determined. These assays were performed using a protocol based on the original description of the assay by Joseph et al., (2004) Naun.-Sch. Arch. Pharm.; 369:525-532.
IC50 determinations for the compounds presented above are seen in the second column of Table 1 (Beta 2 IC50).

[2] = target: T2, human recombinant beta-2 adrenoreceptors; experiment: Functional agonism of human recombinant beta-2 adrenoreceptors expressed in CHO cells (cAMP HTRF); format: cell-based; details: CHO cells expressing human beta-2 adrenoreceptors, cAMP elevation, 30 min
Description: Functional Agonism of Human Recombinant Beta-2 Adrenoreceptors Expressed in Chinese Hamster Oocytes (CHO)
Test compounds were incubated for 30 min with CHO cells expressing the human recombinant beta-2 adrenoreceptors. Agonism of the receptor was measured by the elevation of intracellular cyclic-AMP over control levels detected using a homogeneous time resolved fluorescence (HTRF) format. Compounds were determined to be “full” or “partial” agonists based on the maximum level of cAMP accumulated compared to the control compound isoproterenol which is a full agonist in this assay system. Concentration response curves were generated for test compounds and the EC50 (molar concentration of the agonist which produced 50% of the maximal response for that compound) was determined. These assays were performed using a protocol based on the original description of the assay by Baker, J. G. (2005) Brit. J. Pharmacol.; 144:317-322.
EC50 determinations for the compounds presented above are seen in the third column of Table 1 (Beta 2 EC50).

[3] = test system: LPS-induced TNF-α release from human peripheral blood mononuclear cells (PBMC); experiment: Inhibition of LPS-induced TNF-α release from human PBMC; format: cell-based; details: LPS 0.4 ng/mL, 6 h, presence or absence of ICI-118551 not given
Source text: Inhibition of Lipopolysaccharide (LPS)-Induced Tumour Necrosis Factor Alpha (TNF-α) Release from Human Peripheral Blood Mononuclear Cells (PBMC)
Human whole blood was drawn from donors and cell purification initiated within two hours. Peripheral blood mononuclear cells (PBMC) were purified using a standard Ficoll gradient purification technique and aliquoted at a concentration of 100,000 cells/well in 96 well plates. Beta-2 adrenoreceptor agonists are also anti-inflammatory for some immune cells expressing the receptor and in this assay they can inhibit tumor necrosis factor-alpha (TNF-α) production. Therefore PBMC were pre-incubated for 30 min in the presence of the beta-2 adrenoreceptor antagonist ICI-118551 [3-(isopropylamino)-1-[(7-methyl-4-indanyl)oxy]butan-2-ol] (10 μM) to determine the PDE4 directed activity of test compounds, and in the absence of ICI-118551 for the combined PDE4 and beta-2 receptor directed activity. Test compounds were dissolved in DMSO and diluted in buffer (final DMSO concentration of 0.1% v/v) and were then added to the cell suspensions and pre-incubated for a further 1 h at 37° C. LPS solution was then added (0.4 ng/mL) and the cells incubated for a further 6 h. At the end of the incubation period the cell supernatants were collected and TNF-α was measured using a Procarta Cytokine Assay Kit (Affymetrix, Santa Clara, Calif.) according to the manufacturers' instructions. Data were analyzed using MiraiBio Masterplex QT v4.0 software (MasterPlex Version 1.0.1.18 Copyright 2008, Hitachi Software Engineering Co., Ltd) and used to extrapolate Mean Fluorescence Intensity (MFI) into concentrations of TNF-α and mean values from replicate wells were determined. Inhibition curves were plotted using a nonlinear curve fit employing a single-site binding model to determine the IC50 value for each test compound in the presence or absence of ICI-118551 using GraphPad Prism 5 for Windows, version 5.02 (GraphPad Software, San Diego Calif.).
EC50 determinations for the compounds presented above are seen in the fourth column of Table 1 (PBMC TNF EC50).

T2 sequence (P07550 whole entry): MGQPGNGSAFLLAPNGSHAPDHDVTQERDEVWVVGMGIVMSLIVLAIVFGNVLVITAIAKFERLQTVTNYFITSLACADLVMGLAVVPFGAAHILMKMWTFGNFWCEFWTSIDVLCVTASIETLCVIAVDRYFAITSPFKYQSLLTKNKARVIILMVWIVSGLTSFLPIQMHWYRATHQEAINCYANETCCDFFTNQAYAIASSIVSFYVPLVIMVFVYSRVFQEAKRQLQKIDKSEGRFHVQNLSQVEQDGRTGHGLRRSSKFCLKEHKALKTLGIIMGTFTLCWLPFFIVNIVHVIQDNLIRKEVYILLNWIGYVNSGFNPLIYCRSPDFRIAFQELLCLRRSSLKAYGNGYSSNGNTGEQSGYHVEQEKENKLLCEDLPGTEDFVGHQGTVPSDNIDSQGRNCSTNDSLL
T1 sequence (Q07343 1-564 isoform Q07343-2): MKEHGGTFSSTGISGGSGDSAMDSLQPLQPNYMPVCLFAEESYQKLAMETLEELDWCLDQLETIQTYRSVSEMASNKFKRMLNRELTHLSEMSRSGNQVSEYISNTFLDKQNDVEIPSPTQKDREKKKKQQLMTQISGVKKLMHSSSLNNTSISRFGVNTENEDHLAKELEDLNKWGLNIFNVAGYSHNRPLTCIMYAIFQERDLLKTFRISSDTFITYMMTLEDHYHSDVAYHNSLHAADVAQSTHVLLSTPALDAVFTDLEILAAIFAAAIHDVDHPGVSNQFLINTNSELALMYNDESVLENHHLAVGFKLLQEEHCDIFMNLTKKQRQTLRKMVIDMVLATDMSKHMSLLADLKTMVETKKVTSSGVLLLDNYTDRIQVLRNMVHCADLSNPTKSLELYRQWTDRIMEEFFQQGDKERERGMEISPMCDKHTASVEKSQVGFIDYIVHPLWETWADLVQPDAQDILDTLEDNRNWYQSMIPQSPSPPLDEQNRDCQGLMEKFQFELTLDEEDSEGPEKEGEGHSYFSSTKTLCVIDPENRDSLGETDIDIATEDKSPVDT

SMILES | IC50 (Human recombinant PDE4B2) | IC50 [1] | EC50 [2] | EC50 [3]
COc1cccc(Nc2c(C(N)=O)cnc3c(C)cc(S(=O)(=O)c4cccc(C(=O)NCCCCCCCCNC[C@H](O)c5ccc(O)c6[nH]c(=O)ccc56)c4)cc23)c1 [Example 1, (R)-6-[[3-[[8-[[2-Hydroxy-2-(8-hydroxy-2-oxo-1,2-dihydroquinolin-5-yl)ethyl]amino]octyl]carbamoyl]phenyl]sulfonyl]-4-[(3-methoxyphenyl)amino]-8-methylquinoline-3-carboxamide] | < 100 nM | < 100 nM | < 100 nM | < 100 nM
COc1cccc(Nc2c(C(N)=O)cnc3c(C)cc(S(=O)(=O)c4cccc(C(=O)Nc5ccc(-c6ccc(CCCCNC[C@H](O)c7ccc(O)c8c7OCC(=O)N8)cc6)cc5)c4)cc23)c1 [Example 21, (R)-6-((3-((4′-(4-((2-hydroxy-2-(5-hydroxy-3-oxo-3,4-dihydro-2H-benzo[b][1,4]oxazin-8-yl)ethyl)amino)butyl)-(1,1′-biphenyl]-4-yl)carbamoyl)phenyl)sulfonyl)-4-((3-methoxyphenyl)amino)-8-methylquinoline-3-carboxamide] | – | < 100 nM | – | < 100 nM
COc1cccc(Nc2c(C(N)=O)cnc3c(C)cc(S(=O)(=O)c4cccc(C(=O)Nc5cccc(-c6ccc(CCCCNC[C@H](O)c7ccc(O)c8c7OCC(=O)N8)cc6)c5)c4)cc23)c1 [Example 22] | – | < 100 nM | < 100 nM | < 100 nM
COc1cccc(Nc2c(C(N)=O)cnc3c(C)cc(S(=O)(=O)c4cccc(C(=O)Nc5ccc(C#CCCCNC[C@H](O)c6cc(O)cc7c6OCC(=O)N7)cc5)c4)cc23)c1 [Example 24, (R)-6-((3-((4-(5-((2-hydroxy-2-(6-hydroxy-3-oxo-3,4-dihydro-2H-benzo[b][1,4]oxazin-8-yl)ethyl)amino)pent-1-yn-1-yl)phenyl)carbamoyl)phenyl)sulfonyl)-4-((3-methoxyphenyl)amino)-8-methylquinoline-3-carboxamide] | – | < 100 nM | < 300 nM | < 100 nM
COc1cccc(Nc2c(C(N)=O)cnc3c(C)cc(S(=O)(=O)c4cccc(C(=O)Nc5ccc(C#CCCCNC[C@H](O)c6ccc(O)c7c6OCC(=O)N7)cc5C)c4)cc23)c1 [Example 35, (R)-6-((3-((4-(5-((2-hydroxy-2-(5-hydroxy-3-oxo-3,4-dihydro-2H-benzo[b][1,4]oxazin-8-yl)ethyl)amino)pent-1-yn-1-yl)-2-methylphenyl)carbamoyl)phenyl)sulfonyl)-4-((3-methoxyphenyl)amino)-8-methylquinoline-3-carboxamide] | – | < 100 nM | < 100 nM | < 100 nM
COc1cccc(Nc2c(C(N)=O)cnc3c(C)cc(S(=O)(=O)c4cccc(C(=O)Nc5ccc(C#CCCCNC[C@H](O)c6ccc(O)c7c6OCC(=O)N7)c(C)c5)c4)cc23)c1 [Example 36, (R)-6-((3-((4-(5-((2-hydroxy-2-(5-hydroxy-3-oxo-3,4-dihydro-2H-benzo[b][1,4]oxazin-8-yl)ethyl)amino)pent-1-yn-1-yl)-3-methylphenyl)carbamoyl)phenyl)sulfonyl)-4-((3-methoxyphenyl)amino)-8-methylquinoline-3-carboxamide] | – | < 100 nM | – | < 100 nM
COc1cccc(Nc2c(C(N)=O)cnc3c(C)cc(S(=O)(=O)c4cccc(C(=O)N(C)c5ccc(CCCCOCCCCCCNC[C@H](O)c6ccc(O)c7[nH]c(=O)ccc67)cc5)c4)cc23)c1 [Example 40, (R)-6-((3-((4-(4-((6-((2-hydroxy-2-(8-hydroxy-2-oxo-1,2-dihydroquinolin-5-yl)ethyl)amino)hexyl)oxy)butyl)phenyl)(methyl)carbamoyl)phenyl)sulfonyl)-4-((3-methoxyphenyl)amino)-8-methylquinoline-3-carboxamide] | – | < 100 nM | < 100 nM | –
COc1cccc(Nc2c(C(N)=O)cnc3c(C)cc(S(=O)(=O)c4cccc(C(=O)N5CCC(NC[C@H](O)c6ccc(O)c(CO)c6)CC5)c4)cc23)c1 [Example 42, (R)-6-[[3-[[4-[[2-Hydroxy-2-[4-hydroxy-3-(hydroxymethyl)phenyl]ethyl]amino]piperidine-1-yl]carbonyl]phenyl]sulfonyl]-4-[(3-methoxyphenyl)amino]-8-methylquinoline-3-carboxamide] | < 100 nM | < 300 nM | – | < 100 nM
COc1cccc(Nc2c(C(N)=O)cnc3c(C)cc(S(=O)(=O)c4ccc(-c5ccc(CCCNC[C@H](O)c6ccc(O)c7c6OCC(=O)N7)cc5)cc4)cc23)c1 [Example 49, (R)-6-((4′-(3-((2-hydroxy-2-(5-hydroxy-3-oxo-3,4-dihydro-2H-benzo[b][1,4]oxazin-8-yl)ethyl)amino)propyl)-[1,1′-biphenyl]-4-yl)sulfonyl)-4-((3-methoxyphenyl)amino)-8-methylquinoline-3-carboxamide] | – | < 100 nM | – | < 100 nM
COc1cccc(Nc2c(C(N)=O)cnc3c(C)cc(S(=O)(=O)c4cccc(-c5ccc(CCCNC[C@H](O)c6ccc(O)c7c6OCC(=O)N7)cc5)c4)cc23)c1 [Example 50, (R)-6-((4′-(3-((2-hydroxy-2-(5-hydroxy-3-oxo-3,4-dihydro-2H-benzo[b][1,4]oxazin-8-yl)ethyl)amino)propyl)-[1,1′-biphenyl]-3-yl)sulfonyl)-4-((3-methoxyphenyl)amino)-8-methylquinoline-3-carboxamide] | – | < 100 nM | – | < 100 nM
COc1cccc(Nc2c(C(N)=O)cnc3c(C)cc(S(=O)(=O)c4ccc(-c5ccc(CCCCCNC[C@H](O)c6ccc(O)c7c6OCC(=O)N7)cc5)cc4)cc23)c1 [Example 51, (R)-6-((4′-(5-((2-hydroxy-2-(5-hydroxy-3-oxo-3,4-dihydro-2H-benzo[b][1,4]oxazin-8-yl)ethyl)amino)pentyl)-[1,1′-biphenyl]-4-yl)sulfonyl)-4-((3-methoxyphenyl)amino)-8-methylquinoline-3-carboxamide] | – | < 100 nM | < 100 nM | < 100 nM
